# From ChEMBL document CHEMBL3132786, “Cytotoxic, immunomodulatory, antimycotic, and antiviral activities of semisynthetic 14-hydroxyabietane derivatives and triptoquinone C-4 epimers” (Medchemcomm, 2013)
# Active and inactive are the calls of the source. No cut-off for these calls is given here.
# Legend:
# [1] = Selectivity ratio of IC50 for african green monkey Vero cells to IC50 for human HeLa cells; assay type: ADME, cell-based; conditions: Vero cells versus HeLa cells, read-out: Ratio IC50
# [2] = Selectivity ratio of IC50 for african green monkey Vero cells to IC50 for human Jurkat cells; assay type: ADME, cell-based; conditions: Vero cells versus Jurkat cells, read-out: Ratio IC50
# HeLa = assay: Cytotoxicity against human HeLa cells after 48 hrs by MTT assay; assay type: functional, cell-based
# Vero = assay: Cytotoxicity against african green monkey Vero cells after 48 hrs by MTT assay; assay type: cell-based; conditions: chlorocebus sabaeus
# Jurkat [3] = assay: Cytotoxicity against human Jurkat cells after 48 hrs by MTT assay; assay type: functional, cell-based
# Aspergillus terreus [4] = assay: Antifungal activity against Aspergillus terreus after 48 hrs by broth dilution method; assay type: functional
# Aspergillus niger [5] = assay: Antifungal activity against Aspergillus niger after 48 hrs by broth dilution method; assay type: functional
# Aspergillus fumigatus [6] = assay: Antifungal activity against Aspergillus fumigatus after 48 hrs by broth dilution method; assay type: functional
# Aspergillus terreus [7] = assay: Antifungal activity against Aspergillus terreus up to 100 ug/ml after 48 hrs by broth dilution method; assay type: functional, organism-based
# Human alphaherpesvirus 1 = assay: Antiviral activity against Herpes simplex virus type 1 infected in HeLa cells assessed as reduction in viral replication after 48 hrs; assay type: functional, organism-based
# Aspergillus fumigatus [8] = assay: Antifungal activity against Aspergillus fumigatus up to 100 ug/ml after 48 hrs by broth dilution method; assay type: functional, organism-based
# Aspergillus flavus = assay: Antifungal activity against Aspergillus flavus up to 100 ug/ml after 48 hrs by broth dilution method; assay type: functional, organism-based
# Aspergillus niger [9] = assay: Antifungal activity against Aspergillus niger up to 100 ug/ml after 48 hrs by broth dilution method; assay type: functional, organism-based
# PBMC [10] = assay: Effect on membrane integrity in human PBMCs; assay type: ADME, cell-based
# PBMC [11] = assay: Antiproliferative activity against human PBMCs at 14 ug/ml after 48 hrs by CFSE fluorescence staining-based flow cytometry; assay type: cell-based
# PBMC [12] = assay: Antiproliferative activity against human PBMCs at 7 ug/ml after 48 hrs by CFSE fluorescence staining-based flow cytometry; assay type: cell-based
# Monocyte [13] = assay: Reduction in IL-10 production in human monocytes at 5 to 15 ug/ml after 24 hrs by cytometric bead array method; assay type: functional, cell-based
# Monocyte [14] = assay: Reduction in TNF-alpha production in human monocytes at 5 to 15 ug/ml after 24 hrs by cytometric bead array method; assay type: functional, cell-based
# Monocyte [15] = assay: Reduction in IL-1beta production in human monocytes at 5 to 15 ug/ml after 24 hrs by cytometric bead array method; assay type: functional, cell-based
# Monocyte [16] = assay: Reduction in LPS-induced IL-10 production in human monocytes at 5 to 15 ug/ml pretreated before LPS addition after 24 hrs by cytometric bead array method; assay type: functional, cell-based
# Monocyte [17] = assay: Reduction in LPS-induced TNF-alpha production in human monocytes at 5 to 15 ug/ml pretreated before LPS addition after 24 hrs by cytometric bead array method; assay type: functional, cell-based
# Monocyte [18] = assay: Reduction in LPS-induced IL-1beta production in human monocytes at 5 to 15 ug/ml pretreated before LPS addition after 24 hrs by cytometric bead array method; assay type: functional, cell-based
# Monocyte [19] = assay: Inhibition of differentiation of LPS-stimulated human monocytes assessed as reduction in expression of HLA-DR at 5 to 15 ug/ml after 120 hrs by fluorescence assay; assay type: functional, cell-based
# Jurkat [20] = assay: Induction of apoptosis in human Jurkat cells assessed as DNA damage at 14 ug/ml after 24 hrs by TUNEL assay; assay type: functional
# Jurkat [21] = assay: Induction of apoptosis in human Jurkat cells assessed as DNA damage at 14 ug/ml after 15 hrs by TUNEL assay; assay type: functional
# PBMC [22] = assay: Effect on cell cycle distribution in human PBMCs assessed as hypoploidy at 14 ug/ml after 15 to 24 hrs by flow cytometry; assay type: ADME, cell-based
# PBMC [23] = assay: Effect on cell cycle distribution in human PBMCs at 14 ug/ml after 15 to 24 hrs by flow cytometry; assay type: ADME, cell-based
# Jurkat [24] = assay: Cell cycle arrest in human Jurkat cells assessed as hypoploidy at 14 ug/ml after 24 hrs by flow cytometry; assay type: functional
# Jurkat [25] = assay: Cell cycle arrest in human Jurkat cells assessed as hypoploidy at 14 ug/ml after 15 hrs by flow cytometry; assay type: functional
# Jurkat [26] = assay: Cell cycle arrest in human Jurkat cells assessed as accumulation at G2/M phase at 14 ug/ml after 24 hrs by flow cytometry; assay type: functional
# Jurkat [27] = assay: Cell cycle arrest in human Jurkat cells assessed as accumulation at G2/M phase at 14 ug/ml after 15 hrs by flow cytometry; assay type: functional
# Jurkat [28] = assay: Cell cycle arrest in human Jurkat cells assessed as decrease in G0/G1 phase at 14 ug/ml after 15 to 24 hrs by flow cytometry; assay type: functional, cell-based
# PBMC [29] = assay: Induction of apoptosis in human PBMCs assessed as apoptotic cells at 14 ug/ml after 24 hrs by annexin V/PI-based flow cytometry; assay type: cell-based
# PBMC [30] = assay: Induction of apoptosis in human PBMCs assessed as apoptotic cells at 14 ug/ml after 15 hrs by annexin V/PI-based flow cytometry; assay type: cell-based
# Jurkat [31] = assay: Induction of apoptosis in human Jurkat cells assessed as apoptotic cells at 14 ug/ml after 24 hrs by annexin V/PI-based flow cytometry; assay type: functional
# Jurkat [32] = assay: Induction of apoptosis in human Jurkat cells assessed as apoptotic cells at 14 ug/ml after 15 hrs by annexin V/PI-based flow cytometry; assay type: functional
# PBMC [33] = assay: Reduction in membrane potential in human PBMCs at 14 ug/ml after 24 hrs using DiOC6(3) by flow cytometry; assay type: ADME, cell-based; design: scale not given: the % may be the effect or the level left
# Jurkat [34] = assay: Effect on membrane integrity in human Jurkat cells; assay type: functional, cell-based
# PBMC [35] = assay: Reduction in membrane potential in human PBMCs at 14 ug/ml after 15 hrs using DiOC6(3) by flow cytometry; assay type: ADME, cell-based; design: scale not given: the % may be the effect or the level left
# Jurkat [36] = assay: Reduction in membrane potential in human Jurkat cells at 7 ug/ml after 15 to 24 hrs using DiOC6(3) by flow cytometry; assay type: functional, cell-based
# Jurkat [37] = assay: Reduction in membrane potential in human Jurkat cells at 14 ug/ml after 24 hrs using DiOC6(3) by flow cytometry; assay type: functional; design: scale not given: the % may be the effect or the level left
# Jurkat [38] = assay: Reduction in membrane potential in human Jurkat cells at 14 ug/ml after 15 hrs using DiOC6(3) by flow cytometry; assay type: functional; design: scale not given: the % may be the effect or the level left
# PBMC [39] = assay: Antiproliferative activity against PHA-stimulated human PBMCs assessed as CD69 expression at 1 to 14 ug/ml treated post PHA stimulation measured after 12 hrs by flow cytometry; assay type: cell-based
# PBMC [40] = assay: Antiproliferative activity against PHA-stimulated human PBMCs assessed as CD69 expression pretreated at 1 to 14 ug/ml before PHA stimulation measured after 12 hrs by flow cytometry; assay type: cell-based
# [41] = Antiproliferative activity against PHA-stimulated human CD8+ T cells at 14 ug/ml after 72 hrs by CFSE fluorescence staining-based flow cytometry; conditions: t-cell
# [42] = Antiproliferative activity against PHA-stimulated human CD4+ T cells at 14 ug/ml after 72 hrs by CFSE fluorescence staining-based flow cytometry; conditions: t-cell
# [43] = Antiproliferative activity against PHA-stimulated human CD8+ T cells at 7 to 14 ug/ml after 72 hrs by CFSE fluorescence staining-based flow cytometry; conditions: t-cell
# [44] = Antiproliferative activity against PHA-stimulated human CD4+ T cells at 7 to 14 ug/ml after 72 hrs by CFSE fluorescence staining-based flow cytometry; conditions: t-cell
# PBMC [45] = assay: Reduction in membrane potential in human PBMCs at 7 to 14 ug/ml after 15 to 24 hrs using DiOC6(3) by flow cytometry; assay type: ADME, cell-based
# PBMC [46] = assay: Antiproliferative activity against human PBMCs at 7 to 14 ug/ml after 48 hrs by CFSE fluorescence staining-based flow cytometry; assay type: cell-based
smiles,measurement,setting,value
CC(C)c1ccc2c(c1O)CC[C@H]1[C@](C)(CO)CCC[C@]21C,selectivity ratio,[1],0.71
same,selectivity ratio,[2],2.3
same,inhibition,HeLa,Dose-dependent effect
same,inhibition (INH),Vero,Dose-dependent effect
same,inhibition,Jurkat [3],Dose-dependent effect
same,MIC,Aspergillus terreus [4],25 µg/mL
same,MIC,Aspergillus niger [5],50 µg/mL
same,MIC,Aspergillus fumigatus [6],25 µg/mL
same,Activity,Aspergillus terreus [7],inactive
same,Activity,Human alphaherpesvirus 1,inactive
same,Activity,Aspergillus fumigatus [8],inactive
same,Activity,Aspergillus flavus,inactive
same,Activity,Aspergillus niger [9],inactive
CC(C)C1=CC(=O)C2=C(CC[C@H]3[C@](C)(CO)CCC[C@]23C)C1=O,Activity,PBMC [10],Non-toxic
same,Activity,PBMC [11],82%
same,Activity,PBMC [12],77%
same,selectivity ratio,[1],1
same,selectivity ratio,[2],5.46
same,Activity,Monocyte [13],inactive
same,Activity,Monocyte [14],inactive
same,Activity,Monocyte [15],inactive
same,Activity,Monocyte [16],Active
same,Activity,Monocyte [17],Active
same,Activity,Monocyte [18],Active
same,Activity,Monocyte [19],Active
same,Activity,Jurkat [20],35%
same,Activity,Jurkat [21],10%
same,Activity,PBMC [22],Non-toxic
same,Activity,PBMC [23],Non-toxic
same,Activity,Jurkat [24],35%
same,Activity,Jurkat [25],12%
same,Activity,Jurkat [26],15%
same,Activity,Jurkat [27],13%
same,Activity,Jurkat [28],Active
same,Activity,PBMC [29],90%
same,Activity,PBMC [30],75%
same,Activity,Jurkat [31],86%
same,Activity,Jurkat [32],26%
same,Activity,PBMC [33],90%
same,Activity,Jurkat [34],inactive
same,Activity,PBMC [35],20%
same,Activity,Jurkat [36],inactive
same,Activity,Jurkat [37],25%
same,Activity,Jurkat [38],15%
same,Activity,PBMC [39],Non-toxic
same,Activity,PBMC [40],Non-toxic
same,Activity,[41],77%
same,Activity,[42],88%
same,Activity,[43],Non-toxic
same,Activity,[44],Non-toxic
same,inhibition,HeLa,Dose-dependent effect
same,inhibition (INH),Vero,Dose-dependent effect
same,inhibition,Jurkat [3],Dose-dependent effect
same,Activity,Aspergillus terreus [7],inactive
same,Activity,Human alphaherpesvirus 1,inactive
same,Activity,Aspergillus fumigatus [8],inactive
same,Activity,Aspergillus flavus,inactive
same,Activity,Aspergillus niger [9],inactive
CC(C)c1ccc2c(c1O)CC[C@H]1[C@](C)(C(=O)O)CCC[C@]21C,selectivity ratio,[1],0.77
same,selectivity ratio,[2],3.09
same,inhibition,HeLa,Dose-dependent effect
same,inhibition (INH),Vero,Dose-dependent effect
same,inhibition,Jurkat [3],Dose-dependent effect
same,Activity,Aspergillus terreus [7],inactive
same,Activity,Human alphaherpesvirus 1,inactive
same,Activity,Aspergillus fumigatus [8],inactive
same,Activity,Aspergillus flavus,inactive
same,Activity,Aspergillus niger [9],inactive
COC(=O)[C@]1(C)CCC[C@]2(C)C3=C(CC[C@@H]12)C(=O)C(C(C)C)=CC3=O,selectivity ratio,[1],1.23
same,selectivity ratio,[2],2.34
same,inhibition,HeLa,Dose-dependent effect
same,inhibition (INH),Vero,Dose-dependent effect
same,inhibition,Jurkat [3],Dose-dependent effect
same,Activity,Aspergillus terreus [7],inactive
same,Activity,Human alphaherpesvirus 1,inactive
same,Activity,Aspergillus fumigatus [8],inactive
same,Activity,Aspergillus flavus,inactive
same,Activity,Aspergillus niger [9],inactive
CC(C)C1=CC(=O)C2=C(CC[C@H]3[C@](C)(C(=O)O)CCC[C@]23C)C1=O,Activity,PBMC [10],Non-toxic
same,selectivity ratio,[1],4.74
same,selectivity ratio,[2],8.96
same,Activity,Monocyte [13],inactive
same,Activity,Monocyte [14],inactive
same,Activity,Monocyte [15],inactive
same,Activity,Monocyte [16],Active
same,Activity,Monocyte [17],Active
same,Activity,Monocyte [18],Active
same,Activity,Monocyte [19],Active
same,Activity,Jurkat [20],inactive
same,Activity,Jurkat [21],inactive
same,Activity,PBMC [22],Non-toxic
same,Activity,PBMC [23],Non-toxic
same,Activity,Jurkat [24],inactive
same,Activity,Jurkat [25],inactive
same,Activity,Jurkat [26],inactive
same,Activity,Jurkat [27],inactive
same,Activity,Jurkat [28],inactive
same,Activity,PBMC [29],Toxic
same,Activity,PBMC [30],Toxic
same,Activity,Jurkat [31],Active
same,Activity,Jurkat [32],Active
same,Activity,Jurkat [34],inactive
same,Activity,PBMC [45],Non-toxic
same,Activity,Jurkat [36],inactive
same,Activity,Jurkat [37],inactive
same,Activity,Jurkat [38],inactive
same,Activity,PBMC [39],Non-toxic
same,Activity,PBMC [40],Non-toxic
same,Activity,[43],Non-toxic
same,Activity,[44],Non-toxic
same,Activity,PBMC [46],Non-toxic
same,inhibition,HeLa,Dose-dependent effect
same,inhibition (INH),Vero,Dose-dependent effect
same,inhibition,Jurkat [3],Dose-dependent effect
same,Activity,Aspergillus terreus [7],inactive
same,Activity,Human alphaherpesvirus 1,inactive
same,Activity,Aspergillus fumigatus [8],inactive
same,Activity,Aspergillus flavus,inactive
same,Activity,Aspergillus niger [9],inactive
COC(=O)[C@]1(C)CCC[C@]2(C)c3ccc(C(C)C)c(O)c3CC[C@@H]12,selectivity ratio,[1],1.9
same,selectivity ratio,[2],2.59
same,inhibition,HeLa,Dose-dependent effect
same,inhibition (INH),Vero,Dose-dependent effect
same,inhibition,Jurkat [3],Dose-dependent effect
same,Activity,Aspergillus terreus [7],inactive
same,Activity,Human alphaherpesvirus 1,inactive
same,Activity,Aspergillus fumigatus [8],inactive
same,Activity,Aspergillus flavus,inactive
same,Activity,Aspergillus niger [9],inactive
